Measurements: patent US8592172B2, “Bioluminescent assays using cyanobenzothiazole compounds” (Promega Corporation, priority 2010, dated 2013)

Experiments:
UGT isozymes = UGT isozymes currently reported in the literature; cited from earlier work
GST M1-1 = target: T1, GST M1-1 (Homo sapiens, UniProt P09488); experiment: Utilization of benzothiazole substrate by GST M1-1; assay type: biochemical; conditions: 55 minutes at room temperature
T1 sequence (P09488 2-218 limits assumed): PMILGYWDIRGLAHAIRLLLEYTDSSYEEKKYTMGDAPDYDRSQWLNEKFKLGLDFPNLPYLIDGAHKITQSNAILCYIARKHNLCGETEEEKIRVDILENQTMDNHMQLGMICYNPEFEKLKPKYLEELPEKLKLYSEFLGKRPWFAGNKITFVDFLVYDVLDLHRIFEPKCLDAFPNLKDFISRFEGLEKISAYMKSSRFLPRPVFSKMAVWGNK
Experimental: (§1) Compound 934-37 was dissolved in DMSO to produce a solution approximately 1 mg/mL. This solution was diluted 1:100 (v/v) into 50 mM HEPES buffer pH 7.5 to produce a substrate solution (approximately 10 μg/ml). Twenty μL of this solution was placed in 10 wells of a 96 well, white luminometer plate (Promega part Z3291), 20 μL of a 1:3.1 dilution of the substrate (approximately 3.2 μg/ml) was placed into another 10 wells in the luminometer plate.
(§2) D-Cysteine, 4 mg (Sigma Chemical Corp.; C8005-1g, 017K1034) was dissolved into 1 mL of 50 mM HEPES buffer pH 7.5, then 4 μL added to 4 of the wells containing the substrate solution and 4 of the wells with diluted substrate solution to convert compound 934-37 to the corresponding luciferin derivative. The structures of these compounds are shown below.
A sample of GST M1-1 (1.2 mg/mL) and 100 μL of 100 mM glutathione was diluted into 5 mL of 50 mM HEPES pH 7.5, then 25 μL added to: two of the wells with unconverted, concentrated compound 934-37; 2 wells with concentrated and converted compound 934-37; and two of the wells with unconverted, diluted compound 934-37 and 2 of the wells with converted, diluted compound 934-37.
(§3) Glutathione (100 μL of 100 mM glutathione) had been diluted to 5 mL with 50 mM HEPES buffer pH 7.5, then 25 μL added to the remaining wells of converted and unconverted compound 934-37 in concentrated and diluted solution.
(§4) After 55 minutes at room temperature, 4 μL of the D-cysteine solution above was added to all wells that had not received cysteine before, then 50 μL of P450-Glo LDR was added. The plate was then placed into a GloMax luminometer (Promega Corp.), and the bioluminescence measured after 15 minutes of incubation. The values obtained were averaged, and the average value of the bioluminescence produced from the wells with no enzyme were then subtracted from the average of the bioluminescence produced in the wells with enzyme.

[1] = target: T2, glutathione S-transferase isoenzyme A1-1 (GST A1-1) (Homo sapiens, UniProt P08263); experiment: Utilization of benzothiazole substrate by GST A1-1; assay type: biochemical; conditions: 55 minutes at room temperature
T2 sequence (P08263 1-222): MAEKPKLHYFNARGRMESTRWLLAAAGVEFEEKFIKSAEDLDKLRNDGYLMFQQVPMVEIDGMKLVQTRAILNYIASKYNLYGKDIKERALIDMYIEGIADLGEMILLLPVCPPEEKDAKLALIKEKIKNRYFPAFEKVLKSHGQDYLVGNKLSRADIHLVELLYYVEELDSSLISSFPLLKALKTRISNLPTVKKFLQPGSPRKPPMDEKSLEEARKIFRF
Experimental: as §1, §2
A sample of glutathione S-transferase isoenzyme A1-1 (GST A1-1) (1.2 mg/mL) and 100 μL of 100 mM glutathione in water was diluted into 5 mL of 50 mM HEPES pH 7.5, then 25 μL added to the plate as follows: 2 wells with unconverted, concentrated compound 934-37; 2 wells with concentrated and converted compound 934-37; 2 wells with unconverted, diluted compound 934-37; and 2 of the wells with converted, diluted compound 934-37.
as §3, §4

[2] = concentrated substrate (approximately 10 μg/ml)
[3] = diluted substrate (approximately 3.2 μg/ml)

Row | Structure (SMILES) | Isozymes Modulated (UGT isozymes) | bioluminescence with GST M1-1 minus no enzyme (GST M1-1; [2]) | bioluminescence with GST M1-1 minus no enzyme (GST M1-1; [3]) | bioluminescence with GST A1-1 minus no enzyme [1, 2] | bioluminescence with GST A1-1 minus no enzyme [1, 3]
1 | O=c1cc(C(F)(F)F)c2ccc(O)cc2o1 [7-hydroxy-4-trifluoromethyl coumarin] | Substrate for 1A1, 1A3, 1A6, 1A9, 2B7 |  |  |  | 
2 | Cc1cc(S(=O)(=O)Oc2ccc3nc(C#N)sc3c2)ccc1[N+](=O)[O-] [Compound 934-37] |  | 41,212 RLU | 30,428 RLU | 164,400 RLU | 195,021 RLU
3 | C=C[C@H]1C[N@@]2CC[C@H]1C[C@@H]2[C@@H](O)c1ccnc2ccc(OC)cc12 [Quinidine] | 2B7 and 2B15, others to a lesser extent |  |  |  | 
4 | O=c1ccc2ccc(O)cc2o1 [Umbelliferne] | Substrate of most isozymes |  |  |  | 
5 | Cc1cc(S(=O)(=O)Oc2ccc3nc(C4=N[C@@H](C(=O)O)CS4)sc3c2)ccc1[N+](=O)[O-] [converted compound 934-37] |  | 315,759 RLU | 213,920 RLU | 6,410 RLU | 6,462 RLU
